target: human APJ receptor (Homo sapiens (Human), UniProt P35414); assay: [35S]GTPγS binding assay on membranes from CHO cells stably expressing human APJ receptor; assay type: biochemical; conditions: membranes of CHO cells stably expressing human APJ receptor, read-out: Activity hAPJ SPA EC50 IP
Method: The human APJ receptor was cloned by polymerase chain reaction and the gene encoding the receptor was subcloned in pFLAG-CMV™-3 expression vector (Sigma, Saint Louis, Mo. USA) in-house at Amgen. A GTPγS binding assay was performed on membranes prepared from CHO cells stably expressing human APJ receptor. The optimum experimental conditions for the concentrations of GDP, MgCl2, and NaCl in the assay buffer were initially determined. […] Incubation was at RT for 90 min and the microplate was read using a ViewLux™ ultra HTS Microplate Imager (PerkinElmer, Inc.). All the results presented are means of several independent experiments and analyzed by non-linear regression methods using the commercially available program Prism (GraphPad, San Diego, Calif.) providing the EC50 values detailed in Table 27.

Chain of human APJ receptor (P35414 whole entry): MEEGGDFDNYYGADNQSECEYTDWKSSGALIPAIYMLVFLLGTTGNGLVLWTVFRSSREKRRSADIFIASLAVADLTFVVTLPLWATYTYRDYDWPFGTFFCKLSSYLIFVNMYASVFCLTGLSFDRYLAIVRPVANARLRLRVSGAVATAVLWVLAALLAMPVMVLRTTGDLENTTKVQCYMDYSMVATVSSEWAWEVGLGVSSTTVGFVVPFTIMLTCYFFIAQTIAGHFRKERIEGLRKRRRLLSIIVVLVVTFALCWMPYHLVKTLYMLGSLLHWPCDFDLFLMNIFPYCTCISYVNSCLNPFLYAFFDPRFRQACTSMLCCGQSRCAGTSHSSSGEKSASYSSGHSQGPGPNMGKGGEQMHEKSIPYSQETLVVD

Compared with CC[C@H]([C@@H]1CCCCO1)n1c(NS(=O)(=O)[C@@H](C)[C@H](OC)c2ncc(C)cn2)nnc1-c1cccc(OC)n1 (single isomer, unassigned) [Example 332.0], COc1cccc(-c2nnc(NS(=O)(=O)[C@@H](C)[C@@H](OC(C)C)c3ncc(C)cn3)n2C[C@H]2CCCO2)n1 (racemic) [Example 277.0, (1S,2S)-1-isopropoxy-N-(5-(6-methoxypyridin-2-yl)-4-(((R)-tetrahydrofuran-2-yl)methyl)-4H-1,2,4-triazol-3-yl)-1-(5-methylpyrimidin-2-yl)propane-2-sulfonamide or (1S,2S)-1-isopropoxy-N-(5-(6-methoxypyridin-2-yl)-4-(((S)-tetrahydrofuran-2-yl)methyl)-4H-1,2,4-triazol-3-yl)-1-(5-methylpyrimidin-2-yl)propane-2-sulfonamide] is 120-fold higher in EC50: 0.12 nM for the first, 14 nM for the second.

First: COc1cccc(-c2nnc(NS(=O)(=O)[C@@H](C)[C@H](C)c3ncc(Cl)cn3)n2[C@@H](C)c2ncnn2C)n1 (single isomer, unassigned) [Example 250.0]
Second: COc1cccc(-c2nnc(NS(=O)(=O)[C@@H](C)[C@H](C)c3ncc(Cl)cn3)n2[C@@H](C)c2noc(C)n2)n1 (single isomer, unassigned) [Example 245.0, (2S,3R)-3-(5-chloro-2-pyrimidinyl)-N-(5-(6-methoxy-2-pyridinyl)-4-((1R)-1-(5-methyl-1,2,4-oxadiazol-3-yl)ethyl)-4H-1,2,4-triazol-3-yl)-2-butanesulfonamide or (2S,3R)-3-(5-chloro-2-pyrimidinyl)-N-(5-(6-methoxy-2-pyridinyl)-4-((1S)-1-(5-methyl-1,2,4-oxadiazol-3-yl)ethyl)-4H-1,2,4-triazol-3-yl)-2-butanesulfonamide]
The EC50 of the first is 53-fold higher: 370 nM for the first, 7 nM for the second.

COc1cccc(-c2nnc(NS(=O)(=O)[C@@H](C)[C@H](OC)c3ncc(Cl)cn3)n2[C@@H](C)c2ccon2)n1 (single isomer, unassigned) [Example 265.0, (1R,2S)-1-(5-chloro-2-pyrimidinyl)-1-methoxy-N-(5-(6-methoxy-2-pyridinyl)-4-((1R)-1-(1,2-oxazol-3-yl)ethyl)-4H-1,2,4-triazol-3-yl)-2-propanesulfonamide or (1R,2S)-1-(5-chloro-2-pyrimidinyl)-1-methoxy-N-(5-(6-methoxy-2-pyridinyl)-4-((1S)-1-(1,2-oxazol-3-yl)ethyl)-4H-1,2,4-triazol-3-yl)-2-propanesulfonamide] and COc1cccc(-c2nnc(NS(=O)(=O)[C@@H](C)[C@H](OC)c3ncc(Cl)cn3)n2[C@H](C)c2cscn2)n1 (single isomer, unassigned) [Example 345.0, (1R,2S)-1-(5-chloropyrimidin-2-yl)-1-methoxy-N-(5-(6-methoxypyridin-2-yl)-4-((S)-1-(thiazol-4-yl)ethyl)-4H-1,2,4-triazol-3-yl)propane-2-sulfonamide or (1R,2 S)-1-(5-chloropyrimidin-2-yl)-1-methoxy-N-(5-(6-methoxypyridin-2-yl)-4-((R)-1-(thiazol-4-yl)ethyl)-4H-1,2,4-triazol-3-yl)propane-2-sulfonamide] are within 1.5-fold of each other in EC50: 0.92 nM for the first, 1.1 nM for the second.

First: COCC(COC)n1c(NS(=O)(=O)[C@@H](C)[C@H](OC)c2cnc(C)cn2)nnc1-c1cccc(OC)n1 [Example 103.0]
Second: COCC(COC)n1c(NS(=O)(=O)[C@@H](C)[C@H](C)c2cnc(C)cn2)nnc1-c1cccnc1 [Example 17.0, (2S,3R)-N-(4-(1,3-dimethoxy-2-propanyl)-5-(3-pyridinyl)-4H-1,2,4-triazol-3-yl)-3-(5-methyl-2-pyrazinyl)-2-butanesulfonamide]
The EC50 of the first is 25-fold lower: 15 nM for the first, 380 nM for the second.

Compared with CCc1cc(Cn2c(NS(=O)(=O)[C@@H](C)[C@H](OC)c3ncc(Cl)cn3)nnc2-c2cccc(OC)n2)on1 [Example 292.0, (1R,2S)-1-(5-Chloropyrimidin-2-yl)-N-(4-((3-ethylisoxazol-5-yl)methyl)-5-(6-methoxypyridin-2-yl)-4H-1,2,4-triazol-3-yl)-1-methoxypropane-2-sulfonamide], CCc1cc(Cn2c(NS(=O)(=O)[C@@H](C)[C@@H](OC(C)C)c3ncc(C)cn3)nnc2-c2cccc(OC)n2)on1 [Example 294.0, (1S,2S)-N-(4-((3-ethylisoxazol-5-yl)methyl)-5-(6-methoxypyridin-2-yl)-4H-1,2,4-triazol-3-yl)-1-isopropoxy-1-(5-methylpyrimidin-2-yl)propane-2-sulfonamide] is 2.3-fold higher in EC50: 2.4 nM for the first, 5.4 nM for the second.

Compared with CO[C@H](c1ncc(Cl)cn1)[C@H](C)S(=O)(=O)Nc1nnc(-c2ccccn2)n1C(C)C [Example 136.0, (1R,2S)-1-(5-chloro-2-pyrimidinyl)-1-methoxy-N-(4-(2-propanyl)-5-(2-pyridinyl)-4H-1,2,4-triazol-3-yl)-2-propanesulfonamide], COCCn1c(NS(=O)(=O)[C@@H](C)[C@H](OC)c2ncc(Cl)cn2)nnc1-c1ccccn1 [Example 132.0] is 2.6-fold higher in EC50: 57 nM for the first, 150 nM for the second.

First: CC[C@H]([C@@H]1CCCCO1)n1c(NS(=O)(=O)[C@@H](C)[C@H](OC)c2ncc(C)cn2)nnc1-c1cccc(OC)n1 (single isomer, unassigned) [Example 330.0]
Second: COc1cccc(-c2nnc(NS(=O)(=O)[C@@H](C)[C@H](OC)c3ncc(Cl)cn3)n2[C@@H](C)c2ncc(C)o2)n1 (single isomer, unassigned) [Example 256.0, (1R,2S)-1-(5-chloro-2-pyrimidinyl)-1-methoxy-N-(5-(6-methoxy-2-pyridinyl)-4-((1S)-1-(5-methyl-1,3-oxazol-2-yl)ethyl)-4H-1,2,4-triazol-3-yl)-2-propanesulfonamide or (1R,2S)-1-(5-chloro-2-pyrimidinyl)-1-methoxy-N-(5-(6-methoxy-2-pyridinyl)-4-((1R)-1-(5-methyl-1,3-oxazol-2-yl)ethyl)-4H-1,2,4-triazol-3-yl)-2-propanesulfonamide]
The EC50 of the first is 2.1-fold lower: 0.23 nM for the first, 0.48 nM for the second. The first is the more potent here.

First: [2H]C1([2H])C(n2c(NS(=O)(=O)[C@@H](C)[C@H](OC)c3ncc(Cl)cn3)nnc2-c2cccc(OC)n2)C1([2H])[2H] [Example 148.0, (1R,2S)-1-(5-Chloropyrimidin-2-yl)-N-(4-(cyclopropyl-2,2,3,3-d4)-5-(6-methoxypyridin-2-yl)-4H-1,2,4-triazol-3-yl)-1-methoxypropane-2-sulfonamide]
Second: COc1cccc(-c2nnc(NS(=O)(=O)[C@@H](C)[C@H](OC)c3cnc(C)cn3)n2Cc2cc(C(F)(F)F)no2)n1 [Example 203.0, (1R,2S)-1-methoxy-N-(5-(6-methoxy-2-pyridinyl)-4-((3-(trifluoromethyl)-1,2-oxazol-5-yl)methyl)-4H-1,2,4-triazol-3-yl)-1-(5-methyl-2-pyrazinyl)-2-propanesulfonamide]
The EC50 of the first is 8.2-fold lower: 6.8 nM for the first, 56 nM for the second. The first is the more potent here.

COc1cccc(-c2nnc(NS(=O)(=O)[C@@H](C)[C@@H](OC(C)C)c3ncc(C)cn3)n2[C@@H](C)c2ncc(C)o2)n1 (single isomer, unassigned) [Example 242.0, (1S,2S)-N-(5-(6-methoxy-2-pyridinyl)-4-((1S)-1-(5-methyl-1,3-oxazol-2-yl)ethyl)-4H-1,2,4-triazol-3-yl)-1-(5-methyl-2-pyrimidinyl)-1-(2-propanyloxy)-2-propanesulfonamide or (1S,2S)-N-(5-(6-methoxy-2-pyridinyl)-4-((1S)-1-(5-methyl-1,3-oxazol-2-yl)ethyl)-4H-1,2,4-triazol-3-yl)-1-(5-methyl-2-pyrimidinyl)-1-(2-propanyloxy)-2-propanesulfonamide] gave an EC50 of 13 nM.
